Laboratory results reported in US20180243298A1, “TRPV3 MODULATORS” (AbbVie Inc., priority 2015, published 2018).
pIC50: −log10 of the molar value.

Target: T1, human TRPV3 (Homo sapiens, UniProt Q8NET8)
T1 construct: expressed in transfected cells; host or cells: HEK293
T1 sequence (Q8NET8 1-790): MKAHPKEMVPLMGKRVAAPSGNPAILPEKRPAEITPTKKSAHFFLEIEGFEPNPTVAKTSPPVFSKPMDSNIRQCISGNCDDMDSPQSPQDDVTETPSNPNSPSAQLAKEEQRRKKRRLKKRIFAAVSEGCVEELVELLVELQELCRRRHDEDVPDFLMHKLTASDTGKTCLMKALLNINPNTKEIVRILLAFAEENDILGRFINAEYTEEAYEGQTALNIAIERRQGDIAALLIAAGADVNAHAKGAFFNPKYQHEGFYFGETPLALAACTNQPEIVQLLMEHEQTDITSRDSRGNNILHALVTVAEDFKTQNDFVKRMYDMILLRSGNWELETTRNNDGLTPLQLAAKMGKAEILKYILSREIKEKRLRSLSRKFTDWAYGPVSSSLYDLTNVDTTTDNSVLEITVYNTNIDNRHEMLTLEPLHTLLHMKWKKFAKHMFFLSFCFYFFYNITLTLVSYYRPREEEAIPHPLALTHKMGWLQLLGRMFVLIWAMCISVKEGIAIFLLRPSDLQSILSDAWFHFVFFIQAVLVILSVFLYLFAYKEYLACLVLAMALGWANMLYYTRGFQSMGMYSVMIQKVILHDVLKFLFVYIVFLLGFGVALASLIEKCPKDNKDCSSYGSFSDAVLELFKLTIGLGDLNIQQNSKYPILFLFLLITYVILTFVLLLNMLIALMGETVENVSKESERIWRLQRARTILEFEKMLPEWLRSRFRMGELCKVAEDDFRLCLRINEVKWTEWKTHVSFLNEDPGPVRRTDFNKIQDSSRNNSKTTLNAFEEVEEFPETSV
Assay: Calcium flux assay (FLIPR TETRA), recombinant HEK293 cells expressing TRPV3, 2-APB response
Format: cell-based
Conditions: 2-APB at its EC80
Outline: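 Response is the peak fluorescence increase over baseline, as a percentage of the compound-free response to 2-APB at EC80. Calcium flux recorded on FLIPR TETRA in stable human or mouse TRPV3 HEK293 cells after 90–120 min Calcium-4 dye loading.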

| Compound | pIC50 |
| --- | --- |
| COc1ncnc(OC)c1C(=O)Nc1nc(C(F)(F)F)c(/C(=N/O)c2ccccn2)s1 [Example 128, N-{5-[(E)-(hydroxyimino)(pyridin-2-yl)methyl]-4-(trifluoromethyl)-1,3-thiazol-2-yl}-4,6-dimethoxypyrimidine-5-carboxamide] | 6.30 to 7.00 |
| COc1ncnc(OC)c1C(=O)Nc1nc(C(F)(F)F)c(C(C)(O)c2ccccn2)s1 (stereo not drawn) [Example 129, N-{5-[1-hydroxy-1-(pyridin-2-yl)ethyl]-4-(trifluoromethyl)-1,3-thiazol-2-yl}-4,6-dimethoxypyrimidine-5-carboxamide] | < 6.00 |
| COc1ncnc(OC)c1C(=O)Nc1nc(C(F)(F)F)c(C(O)c2ccc(F)cn2)s1 (stereo not drawn) [Example 130, N-{5-[(5-fluoropyridin-2-yl)(hydroxy)methyl]-4-(trifluoromethyl)-1,3-thiazol-2-yl}-4,6-dimethoxypyrimidine-5-carboxamide] | 6.30 to 7.00 |
| COc1ncnc(OC)c1C(=O)Nc1nc(C(F)(F)F)c(C(=O)c2ccc(F)cn2)s1 [Example 131, N-{5-[(5-fluoropyridin-2-yl)carbonyl]-4-(trifluoromethyl)-1,3-thiazol-2-yl}-4,6-dimethoxypyrimidine-5-carboxamide] | > 7.30 |
| COc1ncnc(OC)c1C(=O)Nc1nc(C(F)(F)F)c(/C(=N/O)c2ccc(F)cn2)s1 [Example 132, N-{5-[(E)-(5-fluoropyridin-2-yl)(hydroxyimino)methyl]-4-(trifluoromethyl)-1,3-thiazol-2-yl}-4,6-dimethoxypyrimidine-5-carboxamide] | > 7.30 |
| COc1ncnc(OC)c1C(=O)Nc1nc(C(F)(F)F)c(C(C)=O)s1 [Example 133, N-[5-acetyl-4-(trifluoromethyl)-1,3-thiazol-2-yl]-4,6-dimethoxypyrimidine-5-carboxamide] | 6.30 to 7.00 |
| COc1ncnc(OC)c1C(=O)Nc1nc(C(F)(F)F)c(/C(C)=N/O)s1 [Example 134, N-{5-[(1E)-N-hydroxyethanimidoyl]-4-(trifluoromethyl)-1,3-thiazol-2-yl}-4,6-dimethoxypyrimidine-5-carboxamide] | 6.30 to 7.00 |
| CO/N=C(\C)c1sc(NC(=O)c2c(OC)ncnc2OC)nc1C(F)(F)F [Example 135, 4,6-dimethoxy-N-{5-[(1E)-N-methoxyethanimidoyl]-4-(trifluoromethyl)-1,3-thiazol-2-yl}pyrimidine-5-carboxamide] | > 7.30 |
| CO/N=C(/C)c1sc(NC(=O)c2c(OC)ncnc2OC)nc1C(F)(F)F [Example 136, 4,6-dimethoxy-N-{5-[(1Z)—N-methoxyethanimidoyl]-4-(trifluoromethyl)-1,3-thiazol-2-yl}pyrimidine-5-carboxamide] | > 7.30 |
| COc1ncnc(OC)c1C(=O)Nc1nc(C(F)(F)F)c(C2(C)OCCO2)s1 [Example 137, 4,6-dimethoxy-N-[5-(2-methyl-1,3-dioxolan-2-yl)-4-(trifluoromethyl)-1,3-thiazol-2-yl]pyrimidine-5-carboxamide] | 7.00 to 7.30 |
| COc1ncnc(OC)c1C(=O)Nc1nc(C(F)(F)F)c(C2OCCO2)s1 [Example 138, N-[5-(1,3-dioxolan-2-yl)-4-(trifluoromethyl)-1,3-thiazol-2-yl]-4,6-dimethoxypyrimidine-5-carboxamide] | 6.30 to 7.00 |
| COc1ncnc(OC)c1C(=O)Nc1nc(C(F)(F)F)c(C2OCCCO2)s1 [Example 139, N-[5-(1,3-dioxan-2-yl)-4-(trifluoromethyl)-1,3-thiazol-2-yl]-4,6-dimethoxypyrimidine-5-carboxamide] | 6.30 to 7.00 |
| COc1ncnc(OC)c1C(=O)Nc1nc(C(F)(F)F)c(-c2cnco2)s1 [Example 140, 4,6-dimethoxy-N-[5-(1,3-oxazol-5-yl)-4-(trifluoromethyl)-1,3-thiazol-2-yl]pyrimidine-5-carboxamide] | 7.00 to 7.30 |
| COc1ncnc(OC)c1C(=O)Nc1nc(C(F)(F)F)c(-c2ocnc2C)s1 [Example 141, 4,6-dimethoxy-N-[5-(4-methyl-1,3-oxazol-5-yl)-4-(trifluoromethyl)-1,3-thiazol-2-yl]pyrimidine-5-carboxamide] | 7.00 to 7.30 |
| CCn1nccc1-c1sc(NC(=O)c2c(OC)ncnc2OC)nc1C(F)(F)F [Example 142, N-[5-(1-ethyl-1H-pyrazol-5-yl)-4-(trifluoromethyl)-1,3-thiazol-2-yl]-4,6-dimethoxypyrimidine-5-carboxamide] | 6.30 to 7.00 |
| COc1ncnc(OC)c1C(=O)Nc1nc(C(F)(F)F)c(C2=CCCO2)s1 [Example 143, N-[5-(4,5-dihydrofuran-2-yl)-4-(trifluoromethyl)-1,3-thiazol-2-yl]-4,6-dimethoxypyrimidine-5-carboxamide] | > 7.30 |
| COc1ncnc(OC)c1C(=O)Nc1nc(C(F)(F)F)c(C2CCCO2)s1 (stereo not drawn) [Example 144, 4,6-dimethoxy-N-[5-(tetrahydrofuran-2-yl)-4-(trifluoromethyl)-1,3-thiazol-2-yl]pyrimidine-5-carboxamide] | 7.00 to 7.30 |
| COc1ncnc(OC)c1C(=O)Nc1nc(C(F)(F)F)c(C2=COCC2)s1 [Example 145, N-(5-(4,5-dihydrofuran-3-yl)-4-(trifluoromethyl)thiazol-2-yl)-4,6-dimethoxypyrimidine-5-carboxamide] | > 7.30 |
| COc1ncnc(OC)c1C(=O)Nc1nc(C(F)(F)F)c(C2CCOC2)s1 (stereo not drawn) [Example 146, 4,6-dimethoxy-N-[5-(tetrahydrofuran-3-yl)-4-(trifluoromethyl)-1,3-thiazol-2-yl]pyrimidine-5-carboxamide] | 6.30 to 7.00 |
| COc1ncnc(OC)c1C(=O)Nc1nc(C(F)(F)F)c(C2=COCCC2)s1 [Example 147, N-[5-(3,4-dihydro-2H-pyran-5-yl)-4-(trifluoromethyl)-1,3-thiazol-2-yl]-4,6-dimethoxypyrimidine-5-carboxamide] | 7.00 to 7.30 |
| COc1ncnc(OC)c1C(=O)Nc1nc(C(F)(F)F)c(C2CCCOC2)s1 (stereo not drawn) [Example 148, 4,6-dimethoxy-N-[5-(tetrahydro-2H-pyran-3-yl)-4-(trifluoromethyl)-1,3-thiazol-2-yl]pyrimidine-5-carboxamide] | 7.00 to 7.30 |
| COc1ncnc(OC)c1C(=O)Nc1nc(C(F)(F)F)c(-c2ccnc(C3(C#N)CC3)c2)s1 [Example 151, N-{5-[2-(1-cyanocyclopropyl)pyridin-4-yl]-4-(trifluoromethyl)-1,3-thiazol-2-yl}-4,6-dimethoxypyrimidine-5-carboxamide] | > 7.30 |
| COc1ncnc(OC)c1C(=O)Nc1nc(C(F)(F)F)c(-c2ccnc(CC#N)c2)s1 [Example 152, N-{5-[2-(cyanomethyl)pyridin-4-yl]-4-(trifluoromethyl)-1,3-thiazol-2-yl}-4,6-dimethoxypyrimidine-5-carboxamide] | 6.30 to 7.00 |
| COc1ncnc(OC)c1C(=O)Nc1nc(C(F)(F)F)c(-c2cccc(F)n2)s1 [Example 153, N-[5-(6-fluoropyridin-2-yl)-4-(trifluoromethyl)-1,3-thiazol-2-yl]-4,6-dimethoxypyrimidine-5-carboxamide] | > 7.30 |
| COc1ncnc(OC)c1C(=O)Nc1nc(C(F)(F)F)c(-c2cccc(C3(C#N)COC3)n2)s1 [Example 154, N-{5-[6-(3-cyanooxetan-3-yl)pyridin-2-yl]-4-(trifluoromethyl)-1,3-thiazol-2-yl}-4,6-dimethoxypyrimidine-5-carboxamide] | 7.00 to 7.30 |
| COc1ncnc(OC)c1C(=O)Nc1nc(C(F)(F)F)c(-c2cccc(CC#N)n2)s1 [Example 155, N-{5-[6-(cyanomethyl)pyridin-2-yl]-4-(trifluoromethyl)-1,3-thiazol-2-yl}-4,6-dimethoxypyrimidine-5-carboxamide] | 6.30 to 7.00 |
| COc1ncnc(OC)c1C(=O)Nc1nc(C(F)(F)F)c(-c2cncc(OC(C)C)c2)s1 [Example 156, 4,6-dimethoxy-N-{5-[5-(propan-2-yloxy)pyridin-3-yl]-4-(trifluoromethyl)-1,3-thiazol-2-yl}pyrimidine-5-carboxamide] | > 7.30 |
| COc1ncnc(OC)c1C(=O)Nc1nc(C(F)(F)F)c(-c2ccc(C3(C#N)CC3)cn2)s1 [Example 157, N-{5-[5-(1-cyanocyclopropyl)pyridin-2-yl]-4-(trifluoromethyl)-1,3-thiazol-2-yl}-4,6-dimethoxypyrimidine-5-carboxamide] | 7.00 to 7.30 |
| COc1ncnc(OC)c1C(=O)Nc1nc(C(F)(F)F)c(-c2ccc(C(C)(C)C#N)cn2)s1 [Example 158, N-{5-[5-(2-cyanopropan-2-yl)pyridin-2-yl]-4-(trifluoromethyl)-1,3-thiazol-2-yl}-4,6-dimethoxypyrimidine-5-carboxamide] | > 7.30 |
| COc1ncnc(SC)c1C(=O)Nc1nc(C(F)(F)F)c(-c2ccccc2C#N)s1 [Example 159, N-[5-(2-cyanophenyl)-4-(trifluoromethyl)-1,3-thiazol-2-yl]-4-methoxy-6-(methylsulfanyl)pyrimidine-5-carboxamide] | > 7.30 |
